Laboratory results as given in patent US7855309B2, “Pesticide benzyloxy- and phenetyl-substituted phenyl-amidine derivatives” (Bayer CropScience AG, priority 2005, dated 2010).

Experiment: logP by HPLC on reversed-phase column (EEC Directive 79/831 Annex V.A8)
Type: physicochemical
Conditions: HPLC, C18, 40° C., 0.1% aqueous formic acid and acetonitrile
Experimental: Temperature: 40° C.; Mobile phases: 0.1% aqueous formic acid and acetonitrile; linear gradient from 10% acetonitrile to 90% acetonitrile.
Calibration was carried out using unbranched alkan-2-ones (comprising 3 to 16 carbon atoms) with known logP values (determination of the logP values by the retention times using linear interpolation between two successive alkanones).

Row | SMILES | log P
1 | CCN(C)C=Nc1cc(C)c(OCc2cc(C)cc(C)c2)cc1C [Compound 60] | 2.26
2 | CCN(C)C=Nc1cc(C)c(OCc2cccc(C)c2C)cc1C [Compound 89] | 2.29
3 | CCN(C)C=Nc1cc(C)c(OCc2ccc(Cl)cc2Cl)cc1C [Compound 55] | 2.33
4 | CCN(C)C=Nc1cc(C)c(OCc2ccc(OC)cc2)cc1C [Compound 78] | 1.92
5 | Cc1ccc(COc2cc(C)c(N=CN3CCCCC3)cc2C)cc1C [Compound 108] | 2.36
6 | CCN(C)C=Nc1cc(C)c(OCc2ccc(C#N)cc2)cc1C [Compound 10] | 1.7
7 | CCN(C)C=Nc1cc(C)c(OCc2cccc3nsnc23)cc1C [Compound 51] | 1.92
8 | CCN(C)C=Nc1cc(C)c(OCc2ccccc2C(F)(F)F)cc1C [Compound 34] | 2.14
9 | Cc1cc(OCc2cccc(OC(F)(F)F)c2)c(C)cc1N=CN1CCCCC1 [Compound 113] | 2.39
10 | CCN(C)C=Nc1cc(C)c(OCc2ccc(C(C)(C)C)cc2)cc1C [Compound 8] | 2.67
11 | CCN(C)C=Nc1cc(C)c(OCc2cccc(I)c2)cc1C [Compound 85] | 2.42
12 | CCN(C)C=Nc1cc(C)c(OCc2cc(OC)c(OC)cc2Cl)cc1C [Compound 63] | 1.99
13 | Cc1cc(OCc2cc(F)ccc2F)c(C)cc1N=CN1CCCCC1 [Compound 97] | 2.09
14 | CCN(C)C=Nc1cc(C)c(OCc2cccc(OC(F)(F)F)c2)cc1C [Compound 17] | 2.33
15 | CCN(C)C=Nc1cc(C)c(CCc2ccc(C)cc2)cc1C [Compound 41] | 2.23
16 | Cc1cc(OCc2ccc(C(F)(F)F)cc2)c(C)cc1N=CN1CCCCC1 [Compound 126] | 2.58
17 | CCN(C)C=Nc1cc(C)c(OCc2cc(F)ccc2F)cc1C [Compound 59] | 1.99
18 | Cc1cc(OCc2ccc(Cl)c(C(F)(F)F)c2)c(C)cc1N=CN1CCCCC1 [Compound 129] | 2.51
19 | Cc1cc(OCc2ccc(Cl)cc2C(F)(F)F)c(C)cc1N=CN1CCCCC1 [Compound 116] | 2.55
20 | Cc1ccc(COc2cc(C)c(N=CN3CCCCC3)cc2C)cc1Cl [Compound 117] | 2.39
21 | CCN(C)C=Nc1cc(C)c(OCc2cccc(F)c2)cc1C [Compound 80] | 1.99

Row | SMILES | log P
22 | Cc1cc(OCc2ccc(OC(F)F)cc2)c(C)cc1N=CN1CCCCC1 [Compound 125] | 2.16
23 | CCN(C)C=Nc1cc(C)c(OCc2cc(C(F)(F)F)cc(C(F)(F)F)c2)cc1C [Compound 21] | 2.62
24 | COc1cc(Cl)c(COc2cc(C)c(N=CN3CCCCC3)cc2C)cc1OC [Compound 102] | 2.09
25 | CCN(C)C=Nc1cc(C)c(OCc2cc3c(cc2Cl)OCO3)cc1C [Compound 5] | 2.05
26 | Cc1cc(OCc2ccccc2C(F)(F)F)c(C)cc1N=CN1CCCCC1 [Compound 123] | 2.29
27 | CCN(C)C=Nc1cc(C)c(CCc2ccc(Cl)cc2)cc1C [Compound 40] | 2.27
28 | Cc1cc(OCc2cccc(C#N)c2)c(C)cc1N=CN1CCCCC1 [Compound 120] | 1.9
29 | CCN(C)C=Nc1cc(C)c(OCc2ccc(C)cc2)cc1C [Compound 32] | 2.1
30 | Cc1cc(OCc2ccccc2F)c(C)cc1N=CN1CCCCC1 [Compound 100] | 2.09
31 | CCN(C)C=Nc1cc(C)c(OCc2ccc(F)c(OC)c2)cc1C [Compound 22] | 1.92
32 | CCN(C)C=Nc1cc(C)c(CCc2ccccc2Cl)cc1C [Compound 37] | 2.26
33 | Cc1cc(OC(C)c2ccc(F)cc2)c(C)cc1N=CN1CCCCC1 (racemic) [Compound 93] | 2.18
34 | CCN(C)C=Nc1cc(C)c(OCc2ccc(OC(F)(F)F)cc2)cc1C [Compound 23] | 2.38
35 | Cc1cc(OC(C)c2cccc(Cl)c2)c(C)cc1N=CN1CCCCC1 (racemic) [Compound 131] | 2.36
36 | Cc1cc(OCc2cc(C(F)(F)F)ccc2Cl)c(C)cc1N=CN1CCCCC1 [Compound 119] | 2.58
37 | CCN(C)C=Nc1cc(C)c(OCc2ccc3c(c2)CCCC3)cc1C [Compound 75] | 2.55
38 | CCN(C)C=Nc1cc(C)c(CCc2ccc(F)cc2)cc1C [Compound 42] | 2.05
39 | CCN(C)C=Nc1cc(C)c(OCc2ccc(F)c(F)c2)cc1C [Compound 15] | 2.02
40 | Cc1cc(OCc2cccc(C(F)(F)F)c2)c(C)cc1N=CN1CCCCC1 [Compound 96] | 2.29
41 | CCN(C)C=Nc1cc(C)c(OCc2ccc(SC(F)(F)F)cc2)cc1C [Compound 83] | 2.61
42 | C=Cc1cccc(COc2cc(C)c(N=CN(C)CC)cc2C)c1 [Compound 50] | 2.16

Row | SMILES | log P
43 | Cc1cc(OCc2cc(Cl)cc(Cl)c2)c(C)cc1N=CN1CCCCC1 [Compound 90] | 2.51
44 | CCN(C)C=Nc1cc(C)c(OCc2cccc3ccccc23)cc1C [Compound 76] | 2.45
45 | Cc1cc(OC(C)c2ccccc2Cl)c(C)cc1N=CN1CCCCC1 (racemic) [Compound 130] | 2.36
46 | Cc1cc(OC(C)c2ccc(Cl)cc2)c(C)cc1N=CN1CCCCC1 (racemic) [Compound 132] | 2.36
47 | CCN(C)C=Nc1cc(C)c(OCc2ccc(Cl)c(C(F)(F)F)c2)cc1C [Compound 28] | 2.47
48 | Cc1cc(OCc2cccc(Cl)c2)c(C)cc1N=CN1CCCCC1 [Compound 94] | 2.21
49 | CCN(C)C=Nc1cc(C)c(OCc2ccc(C(=O)OC)cc2)cc1C [Compound 53] | 1.9
50 | CCN(C)C=Nc1cc(C)c(OCc2ccccc2Br)cc1C [Compound 67] | 2.13
51 | CCN(C)C=Nc1cc(C)c(OCc2cccc(C=NOC)c2)cc1C [Compound 12] | 2.07
52 | CCN(C)C=Nc1cc(C)c(OCc2ccc3nsnc3c2)cc1C [Compound 27] | 1.86
53 | CCN(C)C=Nc1cc(C)c(OCc2c(C)cc(C)cc2C)cc1C [Compound 86] | 2.42
54 | CCN(C)C=Nc1cc(C)c(OCc2ccccc2I)cc1C [Compound 87] | 2.29
55 | CON=Cc1ccc(COc2cc(C)c(N=CN3CCCCC3)cc2C)cc1 [Compound 103] | 2.21
56 | Cc1cc(OCc2ccc(C(F)(F)F)cc2)c(C)cc1N=CN1CCCCC1 [Compound 109] | 2.33
57 | CCN(C)C=Nc1cc(C)c(OCc2cccc(C)c2)cc1C [Compound 57] | 2.11
58 | Cc1cc(OCc2ccc(SC(F)(F)F)cc2)c(C)cc1N=CN1CCCCC1 [Compound 115] | 2.55
59 | CCN(C)C=Nc1cc(C)c(OCc2cccc(C(=O)OC(C)(C)C)c2)cc1C [Compound 54] | 2.42
60 | Cc1cc(OCc2ccccc2Cl)c(C)cc1N=CN1CCCCC1 [Compound 106] | 2.18
61 | Cc1cc(OCc2ccc(Cl)cc2)c(C)cc1N=CN1CCCCC1 [Compound 105] | 2.26
62 | Cc1cc(OCc2ccc3nsnc3c2)c(C)cc1N=CN1CCCCC1 [Compound 128] | 1.99
63 | Cc1cc(OCc2ccc(Cl)c(Cl)c2)c(C)cc1N=CN1CCCCC1 [Compound 107] | 2.45

Row | SMILES | log P
64 | Cc1cc(OCc2ccc(OC(F)(F)F)cc2)c(C)cc1N=CN1CCCCC1 [Compound 122] | 2.42
65 | Cc1cc(OCc2cccc(SC(F)(F)F)c2)c(C)cc1N=CN1CCCCC1 [Compound 114] | 2.48
66 | Cc1ccc(C)c(COc2cc(C)c(N=CN3CCCCC3)cc2C)c1 [Compound 91] | 2.33
67 | CCN(C)C=Nc1cc(C)c(OCc2cccc(C)c2F)cc1C [Compound 77] | 2.16
68 | Cc1cc(C)cc(COc2cc(C)c(N=CN3CCCCC3)cc2C)c1 [Compound 99] | 2.42
69 | CCN(C)C=Nc1cc(C)c(OCc2cccc(C)c2Cl)cc1C [Compound 71] | 2.29
70 | CCN(C)C=Nc1cc(C)c(CCc2ccccc2C(F)(F)F)cc1C [Compound 45] | 2.42
71 | Cc1cc(OCc2ccc(C#N)cc2)c(C)cc1N=CN1CCCCC1 [Compound 98] | 1.94
72 | Cc1cc(OCc2ccc(F)c(F)c2)c(C)cc1N=CN1CCCCC1 [Compound 110] | 2.13
73 | CCN(C)C=Nc1cc(C)c(OCc2ccccc2Cl)cc1C [Compound 33] | 2.08
74 | CCN(C)C=Nc1cc(C)c(OCc2ccc(SC)cc2)cc1C [Compound 84] | 2.16
75 | CCN(C)C=Nc1cc(C)c(OCc2cc(C)c(C)cc2Cl)cc1C [Compound 47] | 2.42
76 | Cc1cc(OCc2ccccc2OC(F)F)c(C)cc1N=CN1CCCCC1 [Compound 127] | 2.13
77 | CCN(C)C=Nc1cc(C)c(OCc2ccc(C(C)C)cc2)cc1C [Compound 82] | 2.51
78 | CCN(C)C=Nc1cc(C)c(OCc2ccc(OC(F)F)cc2)cc1C [Compound 24] | 2.06
79 | Cc1cc(OCc2ccc(C(C)(C)C)cc2)c(C)cc1N=CN1CCCCC1 [Compound 95] | 2.64
80 | Cc1cc(OCc2ccc(F)cc2)c(C)cc1N=CN1CCCCC1 [Compound 104] | 2.09
81 | CCN(C)C=Nc1cc(C)c(OCc2ccc(Br)cc2)cc1C [Compound 70] | 2.21
82 | Cc1cc(OCc2ccccc2OC(F)(F)F)c(C)cc1N=CN1CCCCC1 [Compound 111] | 2.33
83 | Cc1cc(OCc2ccccc2SC(F)(F)F)c(C)cc1N=CN1CCCCC1 [Compound 112] | 2.48

Same assay, conditions: reversed-phase HPLC column (C18), pH 2.3; read-out: log P (pH 2.3)

Row | SMILES | chromatographic logP
84 | CCN(C)/C=N/c1cc(C)c(I)cc1C [Intermediate (V-1), N′-(4-iodo-2,5-dimethylphenyl)-N-ethyl-N-methylimidoformamide] | 1.21
85 | CCN(C)/C=N/c1cc(C)c(CCc2ccccc2F)cc1C [Compound 44, N-ethyl-N′-{4-[2-(2-fluorophenyl)ethyl]-2,5-dimethylphenyl}-N-methylimidoformamide] | 2.23
86 | CCN(C)/C=N/c1cc(C)c(/C=C/c2ccccc2F)cc1C (racemic) [Intermediate (VII-1)] | 2.11

Same assay, conditions: reversed-phase HPLC column (C18); HPLC, C18, 40° C., 0.1% aqueous formic acid and acetonitrile; read-out: log P

Row | SMILES | chromatographic logP
87 | CCN(C)/C=N/c1cc(C)c(CCc2ccccc2F)cc1C [Compound 44, N-ethyl-N′-{4-[2-(2-fluorophenyl)ethyl]-2,5-dimethylphenyl}-N-methylimidoformamide] | 2.23
